Like-named read-outs stand apart in the source and are kept apart here. Blank lines part the entries; values can stand above or below the compound they belong to.
Legend:
[1] = parameters: method as in PMID 17551814; conditions: dose range of 500-2000 mg/Kg in mice; cited from earlier work
[2] = target: T1, HK2 (Homo sapiens, UniProt P52789); assay: Microscale thermophoresis (MST) assay; format: binding; conditions: labelled HK2 20 nM, 25 °C
T1 construct: made in house; host or cells: E. coli BL21 (DE3)
T1 sequence (P52789 1-917): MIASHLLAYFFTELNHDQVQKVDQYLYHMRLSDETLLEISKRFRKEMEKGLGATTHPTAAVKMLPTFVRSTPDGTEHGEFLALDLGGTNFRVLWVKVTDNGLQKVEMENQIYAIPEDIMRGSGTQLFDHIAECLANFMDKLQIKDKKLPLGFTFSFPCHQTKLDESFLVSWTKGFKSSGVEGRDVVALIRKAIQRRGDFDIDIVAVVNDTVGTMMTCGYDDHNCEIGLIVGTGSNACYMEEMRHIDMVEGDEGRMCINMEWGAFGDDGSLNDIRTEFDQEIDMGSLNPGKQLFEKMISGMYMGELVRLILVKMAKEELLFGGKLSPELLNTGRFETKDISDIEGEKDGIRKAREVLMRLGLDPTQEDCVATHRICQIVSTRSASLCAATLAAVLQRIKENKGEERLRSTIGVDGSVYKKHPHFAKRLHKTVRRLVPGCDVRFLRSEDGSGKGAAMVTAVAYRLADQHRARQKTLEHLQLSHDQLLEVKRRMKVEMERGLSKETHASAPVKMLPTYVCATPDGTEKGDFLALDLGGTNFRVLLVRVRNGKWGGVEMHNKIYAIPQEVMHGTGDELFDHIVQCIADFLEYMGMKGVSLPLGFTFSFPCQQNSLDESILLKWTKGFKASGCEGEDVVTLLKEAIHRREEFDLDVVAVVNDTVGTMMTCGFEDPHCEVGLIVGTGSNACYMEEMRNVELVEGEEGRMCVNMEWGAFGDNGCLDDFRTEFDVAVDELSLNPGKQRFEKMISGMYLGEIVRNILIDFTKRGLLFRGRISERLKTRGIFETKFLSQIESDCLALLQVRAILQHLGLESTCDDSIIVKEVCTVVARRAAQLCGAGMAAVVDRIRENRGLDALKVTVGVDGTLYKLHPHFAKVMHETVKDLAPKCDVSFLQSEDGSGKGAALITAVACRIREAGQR
Protocol: MST was used to analyze the binding affinity between potential ligands and receptors. The purified HK2 was labeled with the Monolith NT™ Protein Labeling Kit RED (Cat # L001) according to the supplied labeling protocol. Labelled HK2 was kept constant at 20 nM, and all tested samples were 1:1 diluted in a 20 mM HEPES (pH 7.4) and 0.05 (v/v) % Tween-20. After 10 min incubation at room temperature, samples were loaded into Monolith™ standard-treated capillaries. And the thermophoresis was measured at 25 °C after 30 min incubation on a Monolith NT.115 instrument (Germany). Furthermore, laser power was set to 20% or 40% using 30 sec on-time. The LED power was set to 100%. The dissociation constant Kd values were fitted by using the NTAnalysis software.

[3] = target: T1, HK2; assay: In vitro enzyme inhibition assay (G6P-DH coupled, NADH 340 nm); format: biochemical
Protocol: Then 85 μL assay mix containing 100 mM Tris HCl pH 8.0, 5 mM MgCl2, 200 mM Glucose, 0.8 mM ATP, 1 mM NAD^+, 0.25 Units of G6P-DH, was added.

[4] = tested on: HCT116; assay: Cytotoxicity test (CCK-8); format: cell-based; conditions: Homo sapiens, HCT-116; HCT116, 48 h
Protocol: (§1) Met was used as a positive control. All experiments were performed in triplicate.

[5] = tested on: SW480; assay: Cytotoxicity test (CCK-8); format: cell-based; conditions: Homo sapiens, SW480, 48 h
Protocol: as §1

[6] = tested on: MCF-7; assay: Cytotoxicity test (CCK-8); format: cell-based; conditions: Homo sapiens, MCF7; MCF-7, 48 h
Protocol: as §1

[7] = tested on: SMMC-7721; assay: Cytotoxicity test (CCK-8); format: cell-based; conditions: Homo sapiens, SMMC-7721, 48 h
Protocol: as §1

[8] = Cytotoxicity test (CCK-8); format: cell-based
Protocol: as §1

[9] = tested on: Lovo; assay: Cytotoxicity test (CCK-8); format: cell-based; conditions: Homo sapiens, 48 h
Protocol: as §1

[10] = recombinant HK2, n.i means no enzyme inhibition
[11] = recombinant HK2, n.i means no enzyme inhibition, read-out: Enzyme IC50

SMILES: O=CC[C@@H](O)[C@H](O)[C@H](O)CO [2-DG, 2-Deoxyglucose]
- therapeutic activity as a single agent [1]: does not have significant therapeutic activity
- Kd [2]: No binding affinity

SMILES: O=C(O)C(=O)CBr [3-BrPA, 3-Bromopyruvate]
- Kd ([2]; read-out: Kd): 0.742 ± 0.0968 mM

SMILES: [H]/N=C(\N/C(=N/[H])NCCCCCCNC(=N)NC(=N)Nc1ccc(Cl)cc1)Nc1ccc(Cl)cc1 [Chlorhexidine]
- Enzyme IC50 [3, 10]: n.i

SMILES: O=C(CO)[C@@H](O)[C@H](O)[C@H](O)CO [D-Fructose]
- Enzyme IC50 [3, 10]: n.i ^C

SMILES: CNC[C@H](O)[C@@H](O)[C@H](O)[C@H](O)CO [Meglumine]
- IC50 [3]: > 1 mM

The next lines start with results.

- IC50 [3, 11]: > 1 mM
SMILES: N[C@H]1C(O)O[C@H](CO)[C@@H](O)[C@@H]1O (stereo partly drawn) [D-Glucosamine]

- Kd ([2]; read-out: Kd): 3.93 ± 0.282 mM
SMILES: CN(C)C(=N)N=C(N)N [Metformin]
- IC50 [4]: > 1 mM
- IC50 [5]: > 1 mM
- IC50 [6]: > 1 mM
- IC50 [7]: > 1 mM
- IC50 at 48 h ([8]; African green monkey, Vero normal cells): > 1 mM
- IC50 at 48 h ([8]; human, LO2 normal cells): > 1 mM
- IC50 [9]: > 1 mM

- Enzyme IC50 [3, 10]: n.i
SMILES: NCCC(O)(P(=O)(O)O)P(=O)(O)O [Pamidronate]

- IC50 [3, 11]: > 1 mM
SMILES: O=C(O)c1cc(/N=N/c2ccc(S(=O)(=O)Nc3ccccn3)cc2)ccc1O [Sulfasalazine]

- IC50 [3, 11]: > 1 mM
SMILES: O=C1O[C@H]([C@@H](O)CO)C(O)=C1O [Vitamin C]
